Test [1] concerns aortic rings precontracted by phenylephrine. The test can be described thus: relaxant effect on aortic rings precontracted by phenylephrine. Also noted: species or system spontaneously hypertensive rats. As to conditions: 100 micro-molar each component, final concentration in organ chamber; SHR aortic rings precontracted by phenylephrine (1 micromolar); n=8. Here is the method:
Relaxant Effect on Aortic Rings of the Compounds Tested. The objective of this study was to investigate the vasoarelaxation effects of the compositions of the invention using isolated aorta from spontaneously hypertensive rats. The compounds tested were used at a concentration expressed as final concentration in the organ chamber. Male spontaneously hypertensive rats (SHR) 10-12 weeks old, weighing 250-300 g, were housed at 24±2° C. with 60±20% relative humidity, on a 12-h light-dark cycle. Rats were given free access to a diet of standard food and water. All experiments were performed according to the guidelines for the ethical treatment of animals of the European Union. The rats were killed by cervical dislocation and the aortae were rapidly dissected. The descending thoracic aorta was placed in a modified Krebs-Henseleit solution (PSS) containing (mM): NaCl 118, KCl 4.75, NaHCO3 25, MgSO4 1.2, CaCl2 1.8, KH2PO4 1.2 and glucose 11. After excess fat and connective tissue were removed, the aortae were cut into 2-3-mm rings. Aortic rings were mounted under a basal tension of 2 g in 20 mL organ baths containing PSS and attached to an isometric transducer (Harvard UF-1); the signal was recorded by a Powerlab data acquisition system (AD-Instruments). The tissue bath was maintained at 37° C. and bubbled with a 95% O2 and 5% CO2 gas mixture. The relaxant effect of compounds tested was assessed by adding the compound to aortic rings precontracted by phenylephrine (1 micromolar). After the aortae were contracted with phenylephrine and when the contractile response was reached, the test compound was added to the bath. All the results were expressed as a percentage of the maximal contraction of phenylephrine-induced responses. Results are expressed as percentages from the initial precontraction level. The significance was calculated on the actual contraction values means±SE (n=8 aorta preparations per group). Eight preparations were studied from a single aorta. The Student t-test was used as the comparison test for statistical analysis.

The subject of test [2] is croton oil-induced hemorrhoid model in rats. The test is described as follows: croton oil-induced hemorrhoid model in rats (recto-anus coefficient). It is filed as in vivo, rat. As to conditions: 24 hours after induction with croton oil (3%); oral once per day for five days; 20 mg/kg propionyl L-carnitine or L-carnitine, 30 mg/kg troxerutine, diosmine or hesperidine; RAC = weight of recto-anus (mg)/body weight (g); n = 5 rats. The method, then:
Reduction of the Swelling of the Recto-Anus, in Croton Oil-Induced Hemorrhoid Model in Rats.
Male SD rats (6 weeks old, approximately 140 g) were purchased from Harlan Sprague Dawley and allowed to acclimate for 1 week. The rats were maintained in a pathogen-free facility in accordance with the National Research Council of Laboratory Animal care and use guidelines. Each experiment was preformed with age-matched rats 7-8 weeks old. The croton oil-induced hemorrhoid model in rats was performed according to the method published by Nishiki (Nishiki et al. (1988) Folia Pharmacology Japan 92:215-225; Nishiki et al. (1988) Folia Pharmacol. Japan 92:227-240). Briefly, a cotton swab with a diameter of 4 mm soaked with 0.16 mL of inducer (deionized water: pyridine: ethyl ether: 6% croton oil/ethyl ether (1:4:5:10) was applied to the rat's anus for 12 seconds. The final concentration of croton oil was 3%. The edema developed linearly until 7-8 hours after application and the severity of the edema was sustained for more than 24 hours. Twenty-four hours later, recto-anus tissue (approx. 10 mm long) was isolated after the rats were euthanized. The weights of rat body and recto-anus were measured. The recto-anus coefficient (RAC) was calculated using the formula: weight of recto-anus (mg)/body weight (g).
The compounds of the invention were administered orally suspended in saline (1 mL) once per day for five days. Last treatment with the compounds of the invention was made the day of induction of oedema with croton oil.
The compounds of the invention were administered alone or in combination at the following doses: 20 mg/kg propionyl L-carnitine or L-carnitine; 30 mg/kg troxerutine, diosmine or hesperidine.
Twenty-four hours after hemorrhoid induction with croton oil the RAC of rats was determined.

We go through five molecules from US20130005670A1, “COMBINATION COMPOSITION, COMPRISING AS ACTIVE INGREDIENTS L-CARNITlNE OR PROPIONYL L-CARNITlNE, FOR THE PREVENTION OR TREATMENT OF CHRONIC VENOUS INSUFFICIENCY” (SIGMA-TAU INDUSTRIE FARMACEUTICHE RIUNITE S.P.A., priority 2010, published 2013).

Consider `C[C@@H]1O[C@@H](OC[C@H]2O[C@@H](Oc3c(-c4ccc(OCCO)c(OCCO)c4)oc4cc(OCCO)cc(O)c4c3=O)[C@H](O)[C@@H](O)[C@@H]2O)[C@H](O)[C@H](O)[C@H]1O` [Troxerutine], for which, in test [1], the “% RELAXATION” value came to 10%. Also, the “RAC (recto-anus coefficient)” value in test [2] is 2.11.
With `C[N+](C)(C)C[C@H](O)CC(=O)[O-]` [L-carnitine], in test [1], the “% RELAXATION” value is given as 25%. Further, the “RAC (recto-anus coefficient)” value in test [2] was 1.99.
In the same order, the values of `COc1ccc([C@@H]2CC(=O)c3c(O)cc(O[C@@H]4O[C@H](CO[C@@H]5O[C@@H](C)[C@H](O)[C@@H](O)[C@H]5O)[C@@H](O)[C@H](O)[C@H]4O)cc3O2)cc1O` [Hesperidine, hesperidine] are 9% and 2.07.
On to `COc1ccc(-c2cc(=O)c3c(O)cc(O[C@@H]4O[C@H](CO[C@@H]5O[C@@H](C)[C@H](O)[C@@H](O)[C@H]5O)[C@@H](O)[C@H](O)[C@H]4O)cc3o2)cc1O` [Diosmine, diosmine], for which the “% RELAXATION” value in test [1] is 10%. For the same molecule, the “RAC (recto-anus coefficient)” value in test [2] is listed as 2.02.
In the same order, the values of `CCC(=O)O[C@H](CC(=O)[O-])C[N+](C)(C)C` [Propionyl L-carnitine, propionyl L-carnitine] are 28% and 1.96.
